Test results as given in patent US20210214734A1, “METHODS FOR SELECTIVELY INHIBITING MOLECULAR CHAPERONE CLIENTS AND COMPOSITIONS FOR USE THEREOF” (Research Foundation for the State University of New York, priority 2020, published 2021).
“Also recorded” adds a separate entry of the source. Where no end group is shown, it is not given here. [ ]: non-standard residue; d: D form. Phe(4-F) = N[C@@H](Cc1ccc(F)cc1)C(=O)O

Legend:
GR:Hsp90 = experiment: GR dissociation from Hsp90 in 786-O cells; assay type: cell-based
Experimental: (§1) Human embryonic kidney (HEK293) and 786-O cells were acquired from the American Type Culture Collection (ATCC). HEK293 cells were grown in Dulbecco's Modified Eagle Medium (DMEM, Millipore-Sigma) and 786-O cells were grown in Roswell Park Memorial Institute (RPMI-1640, Millipore-Sigma) medium supplemented with 10% fetal bovine serum (FBS, Millipore-Sigma) in a CellQ incubator (Panasonic Healthcare) at 37° C. in 5% CO2.
(§2) Cultured cells were seeded 24 h prior to treatment. Peptides were added to cells at 50% confluency at the indicated concentrations and incubated for 24 h, followed by protein extraction as described below.
(§3) Protein extraction from mammalian cells was carried out using methods previously described. See Woodford et al., Cell Reports, 14, 872-884 (2016). For immunoprecipitation, protein lysates were incubated with Hsp90 antibody for 2 h followed by incubation with protein G agarose (Qiagen) for 2 h at 4° C. Immunopellets were washed 4 times with fresh lysis buffer (20 mM Tris (pH7.4), 100 mM NaCl, 1 mM MgCl2, 0.1% NP40, protease inhibitor cocktail (Roche), and PhosSTOP (Roche)) and eluted with 5× Laemmli buffer. Precipitated proteins were separated by SDS-PAGE and transferred to nitrocellulose membranes. Co-immunoprecipitated proteins were detected by immunoblotting with the indicated antibodies, diluted in 5% non-fat dry milk reconstituted in TBST.

full length human Hsp90 = experiment: 19F NMR R2 filter binding to Hsp90; set-up: 19F NMR signal change in presence of Hsp90 (binding): dose or concentration left out as unconfirmed; details: for 19F NMR signal change in presence of Hsp90 (binding): 19F R2 filter, peptides tested individually, A01
Experimental: (§4) All the NMR experiments have been recorded at 298° K with a Bruker FT NMR Avance III 600-MHz spectrometer equipped with a 5-mm CryoProbe™ QCI^1H/^19F-^13C/^15N-D quadruple resonance, a shielded z-gradient coil, and the automatic sample handling system such as a SAMPLEJET™ brand sampling system with temperature control.
(§5) ^19F NMR experiments are a well-recognized approach to study the interaction between small molecules or peptides and proteins. […] This is due to the large dynamic range defined as the difference of the NMR measured response in the free and protein-bound states. ^19F R2 filter NMR experiments are among the most sensitive techniques for weak binding detection. See Dalvit et al., Journal of American Chemical Society, 125, 7696-7703 (2003). The transverse relaxation rate R2 is a very sensitive parameter for these studies, due to the large Chemical Shift Anisotropy (CSA) of ^19F nucleus and to the large exchange contribution See Dalvit et al., Journal of American Chemical Society, 125, 7696-7703 (2003); the compounds/peptides that interact with the receptor will show a broadening and intensity reduction in their ^19F NMR signal in presence of the protein
(§6) The 5 mM stock solution peptides were prepared in 100% in DMSOd6. Solubility and purity of the peptides in PBS buffer pH 7.4, 10% D2O (for the lock signal) were checked by ^19F and ^1H NMR spectroscopy. 1D ^19F NMR experiments were recorded with proton decoupling with the Waltz-16 scheme during the acquisition period with an acquisition time of 0.95 s, a relaxation delay of 30 s. whereas 1D version of the NOESY (nuclear Overhauser effect spectroscopy) pulse sequence with H2O signal presaturation, a mixing time of 10 ms and a relaxation delay of 30 s was used for ^1H NMR experiments.
(§7) For the binding studies R2 filter experiments were recorded with the Carr-Purcell-Meibom-Gill scheme with a time interval of 23.5 ms between the 180° pulses with a loop of 2, an acquisition time of 0.95 s a D1 of 5 s and a number of scans of 512. All the ^19F chemical shifts are referenced to the CFCl3 signal in water.

[1] = target: Human Serum Albumin (HSA) (Homo sapiens, UniProt P02768); experiment: 19F NMR control for non-specific binding to HSA; details: 40 mM A01, A02 with 10 mM HSA
Experimental: as §4, §5, §6, §7

Aha1 = Aha1 (Homo sapiens, UniProt O95433); experiment: 19F NMR R2 filter binding to Aha1; details: cAbl peptides at 10 mM
Experimental: as §4
(§8) ^19F NMR experiments are a well-recognized approach to study the interaction between small molecules or peptides and proteins. […] This is due to the large dynamic range defined as the difference of the NMR measured response in the free and protein-bound states. ^19F R2 filter NMR experiments are among the most sensitive techniques for weak binding detection. […]
as §6, with “Solubility and purity of the peptides in PBS buffer pH 7.4, 10% D2O (for the lock signal) were checked by ^19F and ^1H NMR spectroscopy.” left out
(§9) For the binding studies R2 filter experiments were recorded with the Carr-Purcell-Meibom-Gill scheme with a time interval of 23.5 ms between the 180° pulses with a loop of 2, an acquisition time of 0.95 s a D1 of 5 s and a number of scans of 512. […]

[2] = system: Hsp90 chaperone complexes (Hsp90, Cdc37, Aha1); experiment: 19F NMR binding to proteins of the Hsp90 chaperone system, single and mixed peptides
Experimental: as §4, §8
as §6, with “Solubility and purity of the peptides in PBS buffer pH 7.4, 10% D2O (for the lock signal) were checked by ^19F and ^1H NMR spectroscopy.” left out
as §9

Cdc37 = target: T1, Cdc37 (Homo sapiens, UniProt Q16543); experiment: 19F NMR R2 filter binding to Cdc37; set-up: dose or concentration left out as unconfirmed
T1 sequence (Q16543 1-378): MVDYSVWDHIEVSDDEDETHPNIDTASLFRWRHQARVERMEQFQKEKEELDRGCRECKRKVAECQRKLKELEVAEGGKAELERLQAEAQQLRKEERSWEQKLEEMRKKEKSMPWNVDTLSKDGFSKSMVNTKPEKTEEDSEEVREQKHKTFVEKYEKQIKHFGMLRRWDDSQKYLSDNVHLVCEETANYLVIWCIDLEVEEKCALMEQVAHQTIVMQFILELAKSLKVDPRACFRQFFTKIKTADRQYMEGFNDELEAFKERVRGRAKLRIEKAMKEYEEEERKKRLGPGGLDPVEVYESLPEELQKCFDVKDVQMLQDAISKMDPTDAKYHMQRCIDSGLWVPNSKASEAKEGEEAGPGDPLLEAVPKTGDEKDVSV
Experimental: as §4, §5, §6, §7

c-Abl = c-Abl protein level by immunoblot in treated HEK293 cells; assay type: cell-based, human; details: 10 μM A01 or A02 with and without TAT, 36 hours
Experimental: as §1
(§10) Cultured cells were seeded 24 h prior to treatment. […]
as §3

c-Abl-Hsp90 interaction = experiment: Hsp90 immunoprecipitation, c-Abl association in HEK293 cells; assay type: cell-based, human; details: 10 μM, 36 hours, IP of endogenous Hsp90
Experimental: as §1, §10, §3

c-Src = experiment: Immunoblot of unrelated client c-Src in HEK293 cells; assay type: cell-based, human; details: 10 μM, 36 hours, selectivity control
Experimental: as §1, §10, §3

Akt = experiment: Immunoblot of unrelated client Akt in HEK293 cells; assay type: cell-based, human; details: 10 μM, 36 hours, selectivity control
Experimental: as §1, §10, §3

Hsp90α-FLAG = Hsp90α-FLAG (Homo sapiens, UniProt P07900); experiment: Biotinylated peptide streptavidin pulldown of Hsp90α; assay type: binding; details: Hsp90α vs Hsp90β; biotinylated peptide pulldown
Experimental: Total cell lysates prepared as described above were incubated with the indicated amounts of biotinylated peptide at 4° C. for 1 h. Streptavidin agarose beads (ThermoScientific) were added and incubated 1 additional hour with gentle rotation. Bound Hsp90 was detected by immunoblotting as described herein.

Cdk4 = experiment: Immunoblot of unrelated client Cdk4 in HEK293 cells; assay type: cell-based, human; details: 10 μM, 36 hours, selectivity control
Experimental: as §1, §10, §3

Aha1-Hsp90 complex = experiment: Hsp90 immunoprecipitation, Aha1-Hsp90 complex in HEK293 cells; assay type: cell-based, human; details: 10 μM, 36 hours
Experimental: as §1, §10, §3

786-O cells = experiment: Apoptosis by cleaved caspase-3 immunoblot in 786-O cells; assay type: cell-based; details: 786-O clear cell renal cell carcinoma cell line
Experimental: as §1, §2, §3

Sequence of Aha1 (O95433 whole entry, species assumed): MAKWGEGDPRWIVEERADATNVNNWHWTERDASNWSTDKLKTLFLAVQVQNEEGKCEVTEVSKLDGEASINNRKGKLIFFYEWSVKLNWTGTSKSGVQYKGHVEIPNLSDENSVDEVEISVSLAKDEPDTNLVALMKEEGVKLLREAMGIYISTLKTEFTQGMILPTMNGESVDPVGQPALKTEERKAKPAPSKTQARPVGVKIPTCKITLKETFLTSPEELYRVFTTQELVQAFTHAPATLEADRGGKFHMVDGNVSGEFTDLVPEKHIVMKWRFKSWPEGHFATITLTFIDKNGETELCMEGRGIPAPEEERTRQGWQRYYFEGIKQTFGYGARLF

Substance: TLPCGGTWRIMTGIE F(F)PEMLA (TLPCGGTWRIMTGIE[Phe(4-F)]PEMLA) [GR-01, glucocorticoid receptor mimic peptide]
- GR dissociation from Hsp90 (GR:Hsp90): showed GR dissociation from Hsp90

Substance: GYSTKPQLAGGGNVTAPTPQGF(F)QHSGS (GYSTKPQLAGGGNVTAPTPQG[Phe(4-F)]QHSGS) [B-Raf-01]
- 19F NMR signal change in presence of Hsp90 (binding) (full length human Hsp90): no or very weak interaction
- binding interaction with HSA by 19F NMR [1]: no interactions were detected
- binding interaction with HSA by 19F NMR ([1]; listed as Braf01-pep): do not interact with HSA

Substance: YAGYDSSVPDSTWRIMTTLNMGGF(F)PEMLA (YAGYDSSVPDSTWRIMTTLNMGG[Phe(4-F)]PEMLA) [GR-02, glucocorticoid receptor mimic peptide]
- binding to Aha1 by 19F NMR (Aha1): bound to all of the tested proteins
- binding to members of the Hsp90 chaperone complex by 19F NMR ([2]; Hsp90, Cdc37, Aha1): binds to all the protein
- competition among peptides when mixed (19F NMR signal variation vs single peptide) ([2]; peptides mixed together and added to protein solution): No significant difference
- binding to Cdc37 by 19F NMR (Cdc37): highest effect on Cdc37; also recorded: binding effect is higher on CDC37
- 19F NMR signal change in presence of Hsp90 (binding) (full length human Hsp90): bound to all of the tested proteins
- GR dissociation from Hsp90 (GR:Hsp90): showed GR dissociation from Hsp90

Substance: F(F)GGSPYPGIDLSQVYELLEK ([Phe(4-F)]GGSPYPGIDLSQVYELLEK) [A02]
- c-Abl protein levels (c-Abl): decrease of c-Abl protein levels
- dissociation of c-Abl from Hsp90 (c-Abl-Hsp90 interaction): dissociation of c-Abl from Hsp90
- c-Src stability or activity (c-Src): neither the related kinase c-Src nor the client kinases Cdk4 or Akt showed a defect in stability or activity
- Akt stability or activity (Akt): neither the related kinase c-Src nor the client kinases Cdk4 or Akt showed a defect in stability or activity
- binding to Hsp90 when A01 and A02 are mixed (full length human Hsp90; 19F NMR, peptides mixed): continue to bind to Hsp90 even when they are mixed
- 19F NMR signal change in presence of Hsp90 (binding) (full length human Hsp90): decrease in the presence of Hsp90, indicating peptide-protein binding
- Hsp90 isoform specificity (Hsp90α-FLAG): neither peptide demonstrates isoform specificity
- Cdk4 stability or activity (Cdk4): neither the related kinase c-Src nor the client kinases Cdk4 or Akt showed a defect in stability or activity
- Aha1-Hsp90 complex formation (Aha1-Hsp90 complex): decreased Aha1-Hsp90 complex formation
- binding interaction with HSA by 19F NMR [1]: neither A01 nor A02 showed binding interaction with HSA
- binding interaction with HSA by 19F NMR ([1]; listed as AblO2): do not interact with HSA

Substance: GEMGKGGKGRVPYPGMVNREVLDQVERGF(F)RM (GEMGKGGKGRVPYPGMVNREVLDQVERG[Phe(4-F)]RM) [c-Src02, c-Src mimic peptide]
- apoptosis (elevation of cleaved caspase-3) (786-O cells): except c-Src02, induced apoptosis
